Usually Kd stands for the free concentration of one partner at which half of the binding sites on the other are occupied at equilibrium, for simple one-to-one binding.

From publication PMC10589072, “Evaluation of Potential Peptide-Based Inhibitors against SARS-CoV-2 and Variants of Concern” (BioMed Research International, 2023) come the findings set out here.

In data set [1] the target is T1, SARS-CoV-2 spike S1 protein (Severe acute respiratory syndrome coronavirus 2, UniProt P0DTC2).
T1 construct: The fluorescent dye NT647 was used to label the SARS-CoV-2 spike S1; purchased Sino Biological 40591-V08H
Kind of data set: biochemical. Type of data set: binding.

The test system of data set [2] is 293T ACE-2 SSC22 cells (HEK 293T expressing ACE2 receptor). The procedure:
The cytotoxicity of the peptides was assessed using a viability assay. […] Cells with peptides were cultured for 3 days, after which cell viability was measured using an ATP assay (Promega, G9681).

Where no end group is shown, it is not given here.

As for “IDWQFWFHYDKWDHEWEDEWYQSS-NH2 [Peptide P25]”, the “KD compared with ACE2-S protein affinity” value in data set [1] is “comparable to the observed affinity between the S protein and ACE2”. Moreover, in data set [1] (21°C, read-out: KD (constant of dissociation)), the Kd amounted to 42.2 nM. For the same substance, the “cytotoxicity” value in data set [2] (0.125 to 4 mM, 72 hours, ATP assay, n = 3) is recorded as “low toxicity”. Further, in data set [2] (72 h, 4 mM), the cell viability is 91-100%.
